Assay results as given in paper PMC5218480 (PLoS ONE, 2017).

System: MV-4-11 cells
Assay: Gene expression microarray analysis (Affymetrix PrimeView) and GSEA
Assay type: cell-based, human
Set-up: RFU PODN (11730768_x_at) / Fold change /veh PODN (11730768_x_at) / RFU LINC00158 (11744669_a_at) / Fold change /veh LINC00158 (11744669_a_at) / RFU DUSP10 (11751237_a_at) / Fold change /veh DUSP10 (11751237_a_at) / RFU ID3 (11757404_x_at) / Fold change /veh ID3 (11757404_x_at) / RFU PLEKHG5 (11737974_s_at) / Fold change /veh PLEKHG5 (11737974_s_at) / RFU LRRC4B (11730491_at) / Fold change /veh LRRC4B (11730491_at) / RFU GIMAP4 (11747438_a_at) / Fold change /veh GIMAP4 (11747438_a_at) / RFU KRT8 (11758183_x_at) / Fold change /veh KRT8 (11758183_x_at) / RFU CNN1 (11734310_a_at) / Fold change /veh CNN1 (11734310_a_at) / RFU VPS37D (11726825_at) / Fold change /veh VPS37D (11726825_at) / RFU C10orf10 (11716522_x_at) / Fold change /veh C10orf10 (11716522_x_at) / RFU KIR2DL2 /// KIR2DL4 /// KIR2DL5A /// KIR2DL5B /// KIR2DS1 /// KIR2DS2 /// KIR2DS3 /// KIR2DS4 /// KIR3DL3 /// KIR3DL3 /// KIR3DS1 (11738374_at) / Fold change /veh KIR2DL2 /// KIR2DL4 /// KIR2DL5A /// KIR2DL5B /// KIR2DS1 /// KIR2DS2 /// KIR2DS3 /// KIR2DS4 /// KIR3DL3 /// KIR3DL3 /// KIR3DS1 (11738374_at) / RFU C1QL1 (11718748_at) / Fold change /veh C1QL1 (11718748_at) / RFU TMPRSS4 (11747572_a_at) / Fold change /veh TMPRSS4 (11747572_a_at) / RFU HAMP (11756126_x_at) / Fold change /veh HAMP (11756126_x_at) / RFU RNFT2 (11725882_a_at) / Fold change /veh RNFT2 (11725882_a_at) / RFU NR4A2 (11747474_a_at) / Fold change /veh NR4A2 (11747474_a_at) / RFU ABCC12 (11746883_a_at) / Fold change /veh ABCC12 (11746883_a_at) / RFU TMEM136 (11760407_x_at) / Fold change /veh TMEM136 (11760407_x_at) / RFU CLDN22 /// WWC2 (11732394_at) / Fold change /veh CLDN22 /// WWC2 (11732394_at) / RFU HLA-DPB1 (11760878_x_at) / Fold change /veh HLA-DPB1 (11760878_x_at) / RFU SPINT1 (11716480_a_at) / Fold change /veh SPINT1 (11716480_a_at) / RFU GAP43 (11754022_s_at) / Fold change /veh GAP43 (11754022_s_at) / RFU A4GNT (11735810_at) / Fold change /veh A4GNT (11735810_at) / RFU PRB3 (11715151_x_at) / Fold change /veh PRB3 (11715151_x_at) / RFU TUBB4B (11761932_at) / Fold change /veh TUBB4B (11761932_at) / RFU CAPN14 (11732068_a_at) / Fold change /veh CAPN14 (11732068_a_at) / RFU TMCC2 (11721928_a_at) / Fold change /veh TMCC2 (11721928_a_at) / RFU IRGQ (11745062_a_at) / Fold change /veh IRGQ (11745062_a_at) / RFU FAM174B (11720279_a_at) / Fold change /veh FAM174B (11720279_a_at) / RFU TMPRSS4 (11748680_a_at) / Fold change /veh TMPRSS4 (11748680_a_at) / RFU FAM212B (11763350_a_at) / Fold change /veh FAM212B (11763350_a_at) / RFU PLEKHG5 (11743358_a_at) / Fold change /veh PLEKHG5 (11743358_a_at) / RFU ZSCAN30 (11745921_a_at) / Fold change /veh ZSCAN30 (11745921_a_at) / RFU CMKLR1 (11741424_a_at) / Fold change /veh CMKLR1 (11741424_a_at) / RFU LOC101060620 /// MAPK8IP1 (11723275_at) / Fold change /veh LOC101060620 /// MAPK8IP1 (11723275_at) / RFU SPTSSB (11747773_x_at) / Fold change /veh SPTSSB (11747773_x_at) / RFU PRSS12 (11739890_at) / Fold change /veh PRSS12 (11739890_at) / RFU BIN1 (11741810_x_at) / Fold change /veh BIN1 (11741810_x_at) / RFU WNT11 (11732464_a_at) / Fold change /veh WNT11 (11732464_a_at) / RFU C10orf10 (11716521_a_at) / Fold change /veh C10orf10 (11716521_a_at) / RFU C5orf56 (11738089_at) / Fold change /veh C5orf56 (11738089_at) / RFU CYB561 (11721691_x_at) / Fold change /veh CYB561 (11721691_x_at) / RFU ANKRD19P (11752326_a_at) / Fold change /veh ANKRD19P (11752326_a_at) / RFU OR2T12 /// OR2T33 /// OR2T8 (11738714_s_at) / Fold change /veh OR2T12 /// OR2T33 /// OR2T8 (11738714_s_at) / RFU VCAN (11748164_a_at) / Fold change /veh VCAN (11748164_a_at) / RFU JSRP1 (11732532_at) / Fold change /veh JSRP1 (11732532_at) / RFU KRTAP10-11 (11738290_x_at) / Fold change /veh KRTAP10-11 (11738290_x_at) / RFU MYO3A (11730013_a_at) / Fold change /veh MYO3A (11730013_a_at) / RFU EBF3 (11725865_a_at) / Fold change /veh EBF3 (11725865_a_at) / RFU CAMK2N1 (11719241_x_at) / Fold change /veh CAMK2N1 (11719241_x_at) / RFU C5orf56 (11738088_a_at) / Fold change /veh C5orf56 (11738088_a_at) / RFU OLFML3 (11715873_a_at) / Fold change /veh OLFML3 (11715873_a_at) / RFU LOC100653217 /// NTM (11731650_a_at) / Fold change /veh LOC100653217 /// NTM (11731650_a_at) / RFU MAPK11 (11762145_a_at) / Fold change /veh MAPK11 (11762145_a_at) / RFU FIZ1 (11724087_x_at) / Fold change /veh FIZ1 (11724087_x_at) / RFU OASL (11726364_x_at) / Fold change /veh OASL (11726364_x_at) / RFU SOX15 (11748057_x_at) / Fold change /veh SOX15 (11748057_x_at) / RFU CD79A (11719716_a_at) / Fold change /veh CD79A (11719716_a_at) / RFU HIST1H1D (11736915_at) / Fold change /veh HIST1H1D (11736915_at) / RFU CASKIN2 (11723855_a_at) / Fold change /veh CASKIN2 (11723855_a_at) / RFU LOC730098 (11760151_x_at) / Fold change /veh LOC730098 (11760151_x_at) / RFU OR4N2 (11742367_at) / Fold change /veh OR4N2 (11742367_at) / RFU PRRT2 (11749266_a_at) / Fold change /veh PRRT2 (11749266_a_at) / RFU SNX32 (11753110_a_at) / Fold change /veh SNX32 (11753110_a_at) / RFU CDHR5 (11726645_a_at) / Fold change /veh CDHR5 (11726645_a_at) / RFU RCAN1 (11760418_a_at) / Fold change /veh RCAN1 (11760418_a_at) / RFU FAM167A (11723789_a_at) / Fold change /veh FAM167A (11723789_a_at) / RFU FAM26E (11764081_at) / Fold change /veh FAM26E (11764081_at) / RFU ISYNA1 (11749810_s_at) / Fold change /veh ISYNA1 (11749810_s_at) / RFU ACY1 (11761880_at) / Fold change /veh ACY1 (11761880_at) / RFU 11764098_at / Fold change /veh 11764098_at / RFU SAMD14 (11745864_x_at) / Fold change /veh SAMD14 (11745864_x_at) / RFU NPB (11741838_a_at) / Fold change /veh NPB (11741838_a_at) / RFU TMPRSS6 (11731388_a_at) / Fold change /veh TMPRSS6 (11731388_a_at) / RFU KRTAP10-2 (11738614_at) / Fold change /veh KRTAP10-2 (11738614_at) / RFU ARHGAP8 /// PRR5-ARHGAP8 (11727945_x_at) / Fold change /veh ARHGAP8 /// PRR5-ARHGAP8 (11727945_x_at) / RFU KRTAP5-7 /// NADSYN1 (11734609_at) / Fold change /veh KRTAP5-7 /// NADSYN1 (11734609_at) / RFU RASL12 (11751679_a_at) / Fold change /veh RASL12 (11751679_a_at) / RFU CDKN2B (11736163_a_at) / Fold change /veh CDKN2B (11736163_a_at) / RFU PRF1 (11729649_at) / Fold change /veh PRF1 (11729649_at) / RFU, ZNF638 /// ZNF638-IT1 / Fold change vs veh, ZNF638 /// ZNF638-IT1 / RFU, PANK3 / Fold change vs veh, PANK3 / RFU, SH3YL1 / Fold change vs veh, SH3YL1 / RFU, ZEB2 / Fold change vs veh, ZEB2 / RFU, NRIP1 / Fold change vs veh, NRIP1 / RFU, PTTG1IP / Fold change vs veh, PTTG1IP / RFU, CAPN2 / Fold change vs veh, CAPN2 / RFU, MED14 / Fold change vs veh, MED14 / RFU, SNORA58 / Fold change vs veh, SNORA58 / RFU, C1orf63 / Fold change vs veh, C1orf63 / RFU, LRRFIP1 / Fold change vs veh, LRRFIP1 / RFU, NDUFAF7 / Fold change vs veh, NDUFAF7 / RFU, SLC12A2 / Fold change vs veh, SLC12A2 / RFU, IBTK / Fold change vs veh, IBTK / RFU, ESF1 / Fold change vs veh, ESF1 / Fold change vs veh, TMEM50B / RFU, TAOK1 / Fold change vs veh, TAOK1 / RFU, ACBD3 / Fold change vs veh, ACBD3 / RFU, TMA16 / Fold change vs veh, TMA16 / RFU, RWDD3 / Fold change vs veh, RWDD3 / RFU, BCAT1 / Fold change vs veh, BCAT1 / RFU, EDEM3 / Fold change vs veh, EDEM3 / RFU, TMEM33 / Fold change vs veh, TMEM33 / RFU, WDR75 / Fold change vs veh, WDR75 / RFU, AHCTF1 / Fold change vs veh, AHCTF1 / RFU, TFRC / Fold change vs veh, TFRC / RFU, ZDHHC17 / Fold change vs veh, ZDHHC17 / RFU, NOM1 / Fold change vs veh, NOM1 / RFU, ARL8B / Fold change vs veh, ARL8B / RFU, ZBTB11 / Fold change vs veh, ZBTB11 / RFU, TAMM41 / Fold change vs veh, TAMM41 / RFU, KIAA1704 /// LOC100996395 / Fold change vs veh, KIAA1704 /// LOC100996395 / RFU, ING1 / Fold change vs veh, ING1 / RFU, TRMT61B / Fold change vs veh, TRMT61B / RFU, FUBP3 / Fold change vs veh, FUBP3 / RFU, TP53 / Fold change vs veh, TP53 / RFU, TNKS2 / Fold change vs veh, TNKS2 / RFU, ZFP14 / Fold change vs veh, ZFP14 / RFU, ACTR2 / Fold change vs veh, ACTR2 / RFU, PPP3R1 / Fold change vs veh, PPP3R1 / RFU, PIK3R1 / Fold change vs veh, PIK3R1 / RFU, HNRNPA1 / Fold change vs veh, HNRNPA1 / RFU, RNF170 / Fold change vs veh, RNF170 / RFU, ZNF28 / Fold change vs veh, ZNF28 / RFU, RNGTT / Fold change vs veh, RNGTT / RFU, OGT / Fold change vs veh, OGT / RFU, BRD1 / Fold change vs veh, BRD1 / RFU, MARS / Fold change vs veh, MARS / RFU, ZNF655 / Fold change vs veh, ZNF655 / RFU, FAHD1 / Fold change vs veh, FAHD1 / RFU, BDP1 / Fold change vs veh, BDP1 / RFU, LRRCC1 / Fold change vs veh, LRRCC1 / RFU, ARID1A / Fold change vs veh, ARID1A / RFU, ZNF146 / Fold change vs veh, ZNF146 / RFU, ZNF330 / Fold change vs veh, ZNF330 / RFU, GPN3 / Fold change vs veh, GPN3 / RFU, C9orf123 / Fold change vs veh, C9orf123 / RFU, N4BP2L2 / Fold change vs veh, N4BP2L2 / RFU, ARFIP1 / Fold change vs veh, ARFIP1 / RFU, FAM179B / Fold change vs veh, FAM179B / RFU, BCL10 / Fold change vs veh, BCL10 / RFU, UHRF1BP1L / Fold change vs veh, UHRF1BP1L / RFU, BET1 / Fold change vs veh, BET1 / RFU, CNOT2 / Fold change vs veh, CNOT2 / RFU, ZNF268 / Fold change vs veh, ZNF268 / Fold change vs veh, ZNF507 / RFU, DGCR2 / Fold change vs veh, DGCR2 / RFU, WDSUB1 / Fold change vs veh, WDSUB1 / Fold change vs veh, HSP90B1 /// MIR3652 / RFU, ADSS / Fold change vs veh, ADSS / RFU, GK / Fold change vs veh, GK / RFU, ZNF148 / Fold change vs veh, ZNF148 / RFU, TAF9 / Fold change vs veh, TAF9 / RFU, SLC1A5 / Fold change vs veh, SLC1A5 / RFU, SLMO2 / Fold change vs veh, SLMO2 / RFU, ABCC4 / Fold change vs veh, ABCC4 / RFU, LOC101060439 /// RAP1B / Fold change vs veh, LOC101060439 /// RAP1B / RFU, RFX7 / Fold change vs veh, RFX7 / RFU, GTPBP10 / Fold change vs veh, GTPBP10 / RFU, CNEP1R1 / Fold change vs veh, CNEP1R1 / RFU, BIVM-ERCC5 /// ERCC5 / Fold change vs veh, BIVM-ERCC5 /// ERCC5 / RFU, ILF3 / Fold change vs veh, ILF3 / RFU 11762660_at / Fold change /veh 11762660_at / RFU VCAN (11757783_s_at) / Fold change /veh VCAN (11757783_s_at) / RFU DDX43 (11728927_at) / Fold change /veh DDX43 (11728927_at) / RFU KRT8 (11758188_x_at) / Fold change /veh KRT8 (11758188_x_at) / RFU NKD1 (11759106_at) / Fold change /veh NKD1 (11759106_at) / RFU SRD5A1 (11742802_a_at) / Fold change /veh SRD5A1 (11742802_a_at) / RFU TPSAB1 /// TPSB2 (11721975_s_at) / Fold change /veh TPSAB1 /// TPSB2 (11721975_s_at) / RFU GSTM3 (11746129_a_at) / Fold change /veh GSTM3 (11746129_a_at) / RFU IL23R (11737362_x_at) / Fold change /veh IL23R (11737362_x_at) / RFU TMEM51 (11727254_a_at) / Fold change /veh TMEM51 (11727254_a_at) / RFU PIWIL2 (11732686_x_at) / Fold change /veh PIWIL2 (11732686_x_at) / RFU ORM1 (11744905_x_at) / Fold change /veh ORM1 (11744905_x_at) / RFU CCDC152 (11743942_at) / Fold change /veh CCDC152 (11743942_at) / RFU ECM1 (11717891_a_at) / Fold change /veh ECM1 (11717891_a_at) / RFU IL23R (11748794_a_at) / Fold change /veh IL23R (11748794_a_at) / RFU TNFAIP8L3 (11732012_x_at) / Fold change /veh TNFAIP8L3 (11732012_x_at) / RFU MBOAT4 (11741988_at) / Fold change /veh MBOAT4 (11741988_at) / RFU 11764193_at / Fold change /veh 11764193_at / RFU TMEM53 (11763286_at) / Fold change /veh TMEM53 (11763286_at) / RFU MAGEB2 (11727129_at) / Fold change /veh MAGEB2 (11727129_at) / RFU TMEM200A (11744735_a_at) / Fold change /veh TMEM200A (11744735_a_at) / RFU CCDC152 (11751479_a_at) / Fold change /veh CCDC152 (11751479_a_at) / RFU FAM211A (11726209_a_at) / Fold change /veh FAM211A (11726209_a_at) / RFU RGS16 (11746705_a_at) / Fold change /veh RGS16 (11746705_a_at) / RFU VCAN (11755009_s_at) / Fold change /veh VCAN (11755009_s_at) / RFU RHOB (11743442_s_at) / Fold change /veh RHOB (11743442_s_at) / RFU RGS16 (11720943_a_at) / Fold change /veh RGS16 (11720943_a_at) / RFU RGS16 (11720944_at) / Fold change /veh RGS16 (11720944_at) / RFU, VPS4B / Fold change vs veh, VPS4B / RFU, CREB1 / Fold change vs veh, CREB1 / RFU, DNAJC13 / Fold change vs veh, DNAJC13 / RFU, GNAQ / Fold change vs veh, GNAQ / RFU, CDK5R1 / Fold change vs veh, CDK5R1 / RFU, ZRANB3 / Fold change vs veh, ZRANB3 / RFU, CUL4A / Fold change vs veh, CUL4A / RFU, CCNY / Fold change vs veh, CCNY / RFU, UFL1 / Fold change vs veh, UFL1 / RFU, COG3 / Fold change vs veh, COG3 / RFU, DIAPH2 / Fold change vs veh, DIAPH2 / RFU, SKA2 / Fold change vs veh, SKA2 / RFU, AFF3 / Fold change vs veh, AFF3 / RFU, LMF1 / Fold change vs veh, LMF1 / RFU, IPO11 / Fold change vs veh, IPO11 / RFU, DFFB / Fold change vs veh, DFFB / RFU, FOXP1 / Fold change vs veh, FOXP1 / RFU, CARD8 / Fold change vs veh, CARD8 / RFU, STRN3 / Fold change vs veh, STRN3 / RFU, ADK / Fold change vs veh, ADK / RFU, RASSF2 / Fold change vs veh, RASSF2 / RFU, WIPF1 / Fold change vs veh, WIPF1 / RFU, LARP1B / Fold change vs veh, LARP1B / RFU, RASA1 / Fold change vs veh, RASA1 / RFU, RB1 / Fold change vs veh, RB1 / RFU, PPFIA1 / Fold change vs veh, PPFIA1 / RFU, MAT2A / Fold change vs veh, MAT2A / RFU, CCT5 / Fold change vs veh, CCT5 / RFU, WDR92 / Fold change vs veh, WDR92 / RFU, CUX1 / Fold change vs veh, CUX1 / RFU, TTC7A / Fold change vs veh, TTC7A / RFU, TMEM135 / Fold change vs veh, TMEM135 / RFU, DEPTOR / Fold change vs veh, DEPTOR / RFU, CPM / Fold change vs veh, CPM / RFU, DNAJB6 / Fold change vs veh, DNAJB6 / RFU, CACNA2D3 / Fold change vs veh, CACNA2D3 / RFU, DTX4 / Fold change vs veh, DTX4 / RFU, TFCP2 / Fold change vs veh, TFCP2 / RFU, GMCL1 /// GMCL1P1 / Fold change vs veh, GMCL1 /// GMCL1P1 / RFU, AEBP2 / Fold change vs veh, AEBP2 / RFU, SNHG1 /// SNORD22 /// SNORD25 /// SNORD26 /// SNORD27 /// SNORD28 /// SNORD29 /// SNORD31 / Fold change vs veh, SNHG1 /// SNORD22 /// SNORD25 /// SNORD26 /// SNORD27 /// SNORD28 /// SNORD29 /// SNORD31 / Fold change (Aza/veh), C12orf56 (ProbeSet 11735607_a_at) / Fold change (ACY-1035/veh), C12orf56 (ProbeSet 11735607_a_at) / Fold change (Aza/veh), FGFR1OP (ProbeSet 11751329_s_at) / Fold change (ACY-1035/veh), FGFR1OP (ProbeSet 11751329_s_at) / Fold change (Aza/veh), VPS36 (ProbeSet 11739960_a_at) / Fold change (ACY-1035/veh), VPS36 (ProbeSet 11739960_a_at) / RFU SYPL1 (11715823_x_at) / Fold change /veh SYPL1 (11715823_x_at) / RFU IGFBP7 (11715501_s_at) / Fold change /veh IGFBP7 (11715501_s_at) / RFU REEP3 (11722064_at) / Fold change /veh REEP3 (11722064_at) / RFU IGLL1 (11728026_x_at) / Fold change /veh IGLL1 (11728026_x_at): dose or concentration left out as unconfirmed
Settings: MV-4-11 cells, 48 hours

Nc1ncn([C@@H]2O[C@H](CO)[C@@H](O)[C@H]2O)c(=O)n1 [azacitidine]
RFU TMPRSS4 (11747572_a_at): 53.17 RFU
